{"source": "patent US20190209501A1", "about": "“COMPOSITIONS AND METHODS OF USE OF BETA-HYDROXY-BETA-METHYLBUTYRATE (HMB) […] IN[…]” (Texas Tech University Office of Research Commercialization, priority 2018, published 2019)", "assay": "Blood markers (lipids, glucose, insulin)", "format": "in vivo, human", "conditions": "for Cholesterol Δ / Cholesterol Δ (%) / Glucose Δ / Glucose Δ (%) / HDL Δ / HDL Δ (%) / Insulin Δ / Insulin Δ (%) / LDL Δ / LDL Δ (%) / Triglycerides Δ / Triglycerides Δ (%) / VLDL Δ / VLDL Δ (%): baseline to W 8; for Cholesterol ES (d) / Glucose ES (d) / HDL ES (d) / Insulin ES (d) / LDL ES (d) / Triglycerides ES (d) / VLDL ES (d): effect size", "excerpt": "At baseline and after 4 and 8 weeks of the intervention, participants completed two testing sessions: (1) a morning assessment conducted after an overnight fast for assessment of body composition, metabolism, vascular measures and subjective factors: and (2) an afternoon assessment of muscular performance, conducted in the non-fasted state. For morning assessments, participants reported to the laboratory after abstention from eating, drinking, exercising and utilizing caffeine or nicotine for ≥8 hours. Participants were interviewed to confirm adherence to these pre-assessment restrictions. The actual abstention from exercise was ≥14 hours due to the scheduling of exercise sessions. Participants reported to the laboratory wearing athletic clothing, and all metal and accessories were removed from the body prior to testing. Each participant voided her bladder and provided a urine sample. Urine samples were assessed for urine specific gravity (USG) using a digital refractometer (PA201X-093. Misco, Solon, Ohio. USA). Additionally, a standard urinary HCG test was performed to confirm that each participant was not pregnant. Finally, urinary samples were frozen at −80° C. for assessment of urinary HMB content after study unblinding. After voiding, each participant's body mass (BM) and height were determined via digital scale with stadiometer (Seca 769, Hamburg, Germany). Blood draws were performed at Texas Tech University Student Health Services after an overnight fast, and participants completed at-home saliva collections for assessment of the cortisol awakening response (CAR).\nBlood samples collected by certified health professionals were transported via courier to a local clinical laboratory for analysis (University Medical Center Health System, Lubbock, Tex., USA). Testing was performed using standard instrumentation (Cobas 6000, Roche Diagnostics, Risch-Rotkreuz. Switzerland). Total cholesterol, triglycerides and HDL cholesterol were assessed using enzymatic colorimetric assays, and VLDL and non-HDL cholesterol were calculated. LDL cholesterol was calculated using the Martin-Hopkins equation (35). Glucose was measured using an enzymatic UV test, and insulin was assessed via electrochemiluminescence immunoassay. Results of the clinical laboratory analyses were provided to study investigators."}
{"smiles": "CC(C)(O)CC(=O)O", "note": "[TRFHMB, β-hydroxy-β-methylbutyrate]", "values": [{"measurement": "Cholesterol", "setting": "ITT, Baseline", "value": "178 ± 9", "unit": "mg/dL"}, {"measurement": "Glucose", "setting": "ITT, Baseline", "value": "90 ± 3", "unit": "mg/dL"}, {"measurement": "HDL", "setting": "ITT, Baseline", "value": "75 ± 4", "unit": "mg/dL"}, {"measurement": "Insulin", "setting": "ITT, Baseline", "value": "10 ± 2", "unit": "mcU/mL"}, {"measurement": "LDL", "setting": "ITT, Baseline", "value": "85 ± 7", "unit": "mg/dL"}, {"measurement": "Triglycerides", "setting": "ITT, Baseline", "value": "95 ± 10", "unit": "mg/dL"}, {"measurement": "VLDL", "setting": "ITT, Baseline", "value": "19 ± 2", "unit": "mg/dL"}, {"measurement": "Cholesterol", "setting": "ITT, W 8", "value": "183 ± 11", "unit": "mg/dL"}, {"measurement": "Glucose", "setting": "ITT, W 8", "value": "89 ± 3", "unit": "mg/dL"}, {"measurement": "HDL", "setting": "ITT, W 8", "value": "68 ± 5", "unit": "mg/dL"}, {"measurement": "Insulin", "setting": "ITT, W 8", "value": "13 ± 3", "unit": "mcU/mL"}, {"measurement": "LDL", "setting": "ITT, W 8", "value": "97 ± 7", "unit": "mg/dL"}, {"measurement": "Triglycerides", "setting": "ITT, W 8", "value": "85 ± 12", "unit": "mg/dL"}, {"measurement": "VLDL", "setting": "ITT, W 8", "value": "17 ± 2", "unit": "mg/dL"}, {"measurement": "Cholesterol Δ", "setting": "ITT", "value": 5, "unit": "mg/dL"}, {"measurement": "Cholesterol Δ (%)", "setting": "ITT", "value": 3, "unit": "%"}, {"measurement": "Glucose Δ", "setting": "ITT", "value": -1, "unit": "mg/dL"}, {"measurement": "Glucose Δ (%)", "setting": "ITT", "value": "−1", "unit": "%"}, {"measurement": "HDL Δ", "setting": "ITT", "value": -7, "unit": "mg/dL"}, {"measurement": "HDL Δ (%)", "setting": "ITT", "value": "−9", "unit": "%"}, {"measurement": "Insulin Δ", "setting": "ITT", "value": 3, "unit": "mcU/mL"}, {"measurement": "Insulin Δ (%)", "setting": "ITT", "value": 30, "unit": "%"}, {"measurement": "LDL Δ", "setting": "ITT", "value": 12, "unit": "mg/dL"}, {"measurement": "LDL Δ (%)", "setting": "ITT", "value": 14, "unit": "%"}, {"measurement": "Triglycerides Δ", "setting": "ITT", "value": -10, "unit": "mg/dL"}, {"measurement": "Triglycerides Δ (%)", "setting": "ITT", "value": "−11", "unit": "%"}, {"measurement": "VLDL Δ", "setting": "ITT", "value": -2, "unit": "mg/dL"}, {"measurement": "VLDL Δ (%)", "setting": "ITT", "value": "−11", "unit": "%"}, {"measurement": "Cholesterol ES (d)", "setting": "ITT", "value": 0.14}, {"measurement": "Glucose ES (d)", "setting": "ITT", "value": "−0.09"}, {"measurement": "HDL ES (d)", "setting": "ITT", "value": "−0.43"}, {"measurement": "Insulin ES (d)", "setting": "ITT", "value": 0.27}, {"measurement": "LDL ES (d)", "setting": "ITT", "value": 0.48}, {"measurement": "Triglycerides ES (d)", "setting": "ITT", "value": "−0.25"}, {"measurement": "VLDL ES (d)", "setting": "ITT", "value": "−0.28"}, {"measurement": "Cholesterol", "setting": "PP, Baseline", "value": "168 ± 13", "unit": "mg/dL"}, {"measurement": "Glucose", "setting": "PP, Baseline", "value": "92 ± 4", "unit": "mg/dL"}, {"measurement": "HDL", "setting": "PP, Baseline", "value": "72 ± 5", "unit": "mg/dL"}, {"measurement": "Insulin", "setting": "PP, Baseline", "value": "9 ± 3", "unit": "mcU/mL"}, {"measurement": "LDL", "setting": "PP, Baseline", "value": "78 ± 9", "unit": "mg/dL"}, {"measurement": "Triglycerides", "setting": "PP, Baseline", "value": "91 ± 14", "unit": "mg/dL"}, {"measurement": "VLDL", "setting": "PP, Baseline", "value": "18 ± 3", "unit": "mg/dL"}, {"measurement": "Cholesterol", "setting": "PP, W 8", "value": "183 ± 15", "unit": "mg/dL"}, {"measurement": "Glucose", "setting": "PP, W 8", "value": "90 ± 4", "unit": "mg/dL"}, {"measurement": "HDL", "setting": "PP, W 8", "value": "70 ± 6", "unit": "mg/dL"}, {"measurement": "Insulin", "setting": "PP, W 8", "value": "10 ± 3", "unit": "mcU/mL"}, {"measurement": "LDL", "setting": "PP, W 8", "value": "96 ± 9", "unit": "mg/dL"}, {"measurement": "Triglycerides", "setting": "PP, W 8", "value": "80 ± 17", "unit": "mg/dL"}, {"measurement": "VLDL", "setting": "PP, W 8", "value": "16 ± 3", "unit": "mg/dL"}, {"measurement": "Cholesterol Δ", "setting": "PP", "value": 15, "unit": "mg/dL"}, {"measurement": "Cholesterol Δ (%)", "setting": "PP", "value": 9, "unit": "%"}, {"measurement": "Glucose Δ", "setting": "PP", "value": -2, "unit": "mg/dL"}, {"measurement": "Glucose Δ (%)", "setting": "PP", "value": "−2", "unit": "%"}, {"measurement": "HDL Δ", "setting": "PP", "value": -2, "unit": "mg/dL"}, {"measurement": "HDL Δ (%)", "setting": "PP", "value": "−3", "unit": "%"}, {"measurement": "Insulin Δ", "setting": "PP", "value": 1, "unit": "mcU/mL"}, {"measurement": "Insulin Δ (%)", "setting": "PP", "value": 11, "unit": "%"}, {"measurement": "LDL Δ", "setting": "PP", "value": 18, "unit": "mg/dL"}, {"measurement": "LDL Δ (%)", "setting": "PP", "value": 23, "unit": "%"}, {"measurement": "Triglycerides Δ", "setting": "PP", "value": -11, "unit": "mg/dL"}, {"measurement": "Triglycerides Δ (%)", "setting": "PP", "value": "−12", "unit": "%"}, {"measurement": "VLDL Δ", "setting": "PP", "value": -2, "unit": "mg/dL"}, {"measurement": "VLDL Δ (%)", "setting": "PP", "value": "−11", "unit": "%"}, {"measurement": "Cholesterol ES (d)", "setting": "PP", "value": 0.40}, {"measurement": "Glucose ES (d)", "setting": "PP", "value": "−0.19"}, {"measurement": "HDL ES (d)", "setting": "PP", "value": "−0.14"}, {"measurement": "Insulin ES (d)", "setting": "PP", "value": 0.55}, {"measurement": "LDL ES (d)", "setting": "PP", "value": 0.76}, {"measurement": "Triglycerides ES (d)", "setting": "PP", "value": "−0.27"}, {"measurement": "VLDL ES (d)", "setting": "PP", "value": "−0.30"}]}
